Earlier results in PMC3433420 (PLoS ONE, 2012).
Where two headings read alike, the source gives them in different places.

Target: SH2 and PTB domains
Settings: cited from earlier work
Text: Supplement pone.0044471.s022.xlsx, sheet "Most recent PM interactions" | column: Kd || Supplement pone.0044471.s022.xlsx, sheet "All original PM interactions" | column: Kd

[1] = protein PLCG2-NC, ref Kaushansky et al. Chem and Biol 2008

## AEDEpYVNEPLYLd [ErbB4 pY1202, N-terminally rhodamine-labeled 13-mer phosphopeptide]
Protein SYK-N, ref Kaushansky et al. Chem and Biol 2008
  Kd: 6 nM

## ALESILHRIpYTHQSDVWd [ErbB1 891]
Protein HSH2D, most recent PM interactions, ref Kaushansky et al. Mol Biosys 2008
  Kd: 1130 nM
Protein TNS4, most recent PM interactions, ref Kaushansky et al. Mol Biosys 2008
  Kd: 300 nM

## DADEpYLIPQQGFd [ErbB1 pY1016, N-terminally rhodamine-labeled 13-mer phosphopeptide]
Protein ABL2, ref Jones et al. 2006 / Kaushansky et al. Mol Biosys 2008 / Kaushansky et al. Chem and Biol 2008
  Kd: 280 nM
Protein BLK, ref Jones et al. 2006 / Kaushansky et al. Mol Biosys 2008 / Kaushansky et al. Chem and Biol 2008
  Kd: 660 nM
Protein CRK, ref Jones et al. 2006 / Kaushansky et al. Mol Biosys 2008 / Kaushansky et al. Chem and Biol 2008
  Kd: 470 nM
Protein CRKL, ref Jones et al. 2006 / Kaushansky et al. Mol Biosys 2008 / Kaushansky et al. Chem and Biol 2008
  Kd: 1000 nM
Protein NCK1, ref Jones et al. 2006 / Kaushansky et al. Mol Biosys 2008 / Kaushansky et al. Chem and Biol 2008
  Kd: 1000 nM
Protein NCK2, ref Jones et al. 2006 / Kaushansky et al. Mol Biosys 2008 / Kaushansky et al. Chem and Biol 2008
  Kd: 2000 nM
Protein PIK3R1-C, ref Jones et al. 2006 / Kaushansky et al. Mol Biosys 2008 / Kaushansky et al. Chem and Biol 2008
  Kd: 870 nM
Protein PIK3R1-N, ref Jones et al. 2006 / Kaushansky et al. Mol Biosys 2008 / Kaushansky et al. Chem and Biol 2008
  Kd: 650 nM
Protein PIK3R1-NC, ref Jones et al. 2006 / Kaushansky et al. Mol Biosys 2008 / Kaushansky et al. Chem and Biol 2008
  Kd: 300 nM
Protein PIK3R2-N, ref Jones et al. 2006 / Kaushansky et al. Mol Biosys 2008 / Kaushansky et al. Chem and Biol 2008
  Kd: 430 nM
Protein PIK3R2-NC, ref Jones et al. 2006 / Kaushansky et al. Mol Biosys 2008 / Kaushansky et al. Chem and Biol 2008
  Kd: 350 nM
Protein PIK3R3-C, ref Jones et al. 2006 / Kaushansky et al. Mol Biosys 2008 / Kaushansky et al. Chem and Biol 2008
  Kd: 190 nM
Protein PIK3R3-N, ref Jones et al. 2006 / Kaushansky et al. Mol Biosys 2008 / Kaushansky et al. Chem and Biol 2008
  Kd: 470 nM
Protein PIK3R3-NC, ref Jones et al. 2006 / Kaushansky et al. Mol Biosys 2008 / Kaushansky et al. Chem and Biol 2008
  Kd: 200 nM
Protein PLCG1-C, ref Jones et al. 2006 / Kaushansky et al. Mol Biosys 2008 / Kaushansky et al. Chem and Biol 2008
  Kd: 2000 nM
Protein PLCG1-NC, ref Jones et al. 2006 / Kaushansky et al. Mol Biosys 2008 / Kaushansky et al. Chem and Biol 2008
  Kd: 790 nM
Protein PLCG2-NC, ref Jones et al. 2006 / Kaushansky et al. Mol Biosys 2008 / Kaushansky et al. Chem and Biol 2008
  Kd: 2000 nM
Protein PTPN11-N, ref Jones et al. 2006 / Kaushansky et al. Mol Biosys 2008 / Kaushansky et al. Chem and Biol 2008
  Kd: 380 nM
Protein RASA1-N, ref Jones et al. 2006 / Kaushansky et al. Mol Biosys 2008 / Kaushansky et al. Chem and Biol 2008
  Kd: 770 nM
Protein RASA1-NC, ref Jones et al. 2006 / Kaushansky et al. Mol Biosys 2008 / Kaushansky et al. Chem and Biol 2008
  Kd: 1420 nM
Protein SH2D3A, ref Jones et al. 2006 / Kaushansky et al. Mol Biosys 2008 / Kaushansky et al. Chem and Biol 2008
  Kd: 2000 nM
Protein SH2D3C, ref Jones et al. 2006 / Kaushansky et al. Mol Biosys 2008 / Kaushansky et al. Chem and Biol 2008
  Kd: 2000 nM
Protein SHB, ref Jones et al. 2006 / Kaushansky et al. Mol Biosys 2008 / Kaushansky et al. Chem and Biol 2008
  Kd: 1990 nM
Protein SHC1-PTB, ref Jones et al. 2006 / Kaushansky et al. Mol Biosys 2008 / Kaushansky et al. Chem and Biol 2008
  Kd: 630 nM
Protein SHC2-PTB, ref Jones et al. 2006 / Kaushansky et al. Mol Biosys 2008 / Kaushansky et al. Chem and Biol 2008
  Kd: 660 nM
Protein SHC3, ref Jones et al. 2006 / Kaushansky et al. Mol Biosys 2008 / Kaushansky et al. Chem and Biol 2008
  Kd: 220 nM
Protein SLA, ref Jones et al. 2006 / Kaushansky et al. Mol Biosys 2008 / Kaushansky et al. Chem and Biol 2008
  Kd: 2000 nM
Protein SYK-C, ref Jones et al. 2006 / Kaushansky et al. Mol Biosys 2008 / Kaushansky et al. Chem and Biol 2008
  Kd: 930 nM
Protein SYK-NC, ref Jones et al. 2006 / Kaushansky et al. Mol Biosys 2008 / Kaushansky et al. Chem and Biol 2008
  Kd: 530 nM
Protein TENC1, ref Jones et al. 2006 / Kaushansky et al. Mol Biosys 2008 / Kaushansky et al. Chem and Biol 2008
  Kd: 2000 nM
Protein TNS4, ref Jones et al. 2006 / Kaushansky et al. Mol Biosys 2008 / Kaushansky et al. Chem and Biol 2008
  Kd: 920 nM
Protein VAV1, ref Jones et al. 2006 / Kaushansky et al. Mol Biosys 2008 / Kaushansky et al. Chem and Biol 2008
  Kd: 1050 nM
Protein VAV2, ref Jones et al. 2006 / Kaushansky et al. Mol Biosys 2008 / Kaushansky et al. Chem and Biol 2008
  Kd: 2000 nM
Protein VAV3, ref Jones et al. 2006 / Kaushansky et al. Mol Biosys 2008 / Kaushansky et al. Chem and Biol 2008
  Kd: 2000 nM

## DAEEpYLVPQQGFd [ErbB2 pY1023, N-terminally rhodamine-labeled 13-mer phosphopeptide]
Protein ABL2, ref Jones et al. 2006 / Kaushansky et al. Chem and Biol 2008
  Kd: 2000 nM
Protein BLK, ref Jones et al. 2006 / Kaushansky et al. Chem and Biol 2008
  Kd: 2000 nM
Protein CRK, ref Jones et al. 2006 / Kaushansky et al. Chem and Biol 2008
  Kd: 2000 nM
Protein CRKL, ref Jones et al. 2006 / Kaushansky et al. Chem and Biol 2008
  Kd: 2000 nM
Protein DAPP1, ref Jones et al. 2006 / Kaushansky et al. Chem and Biol 2008
  Kd: 2000 nM
Protein FGR, ref Jones et al. 2006 / Kaushansky et al. Chem and Biol 2008
  Kd: 2000 nM
Protein ITK, ref Jones et al. 2006 / Kaushansky et al. Chem and Biol 2008
  Kd: 2000 nM
Protein LYN, ref Jones et al. 2006 / Kaushansky et al. Chem and Biol 2008
  Kd: 2000 nM
Protein NCK2, ref Jones et al. 2006 / Kaushansky et al. Chem and Biol 2008
  Kd: 2000 nM
Protein PIK3R1-C, ref Jones et al. 2006 / Kaushansky et al. Chem and Biol 2008
  Kd: 2000 nM
Protein PIK3R1-NC, ref Jones et al. 2006 / Kaushansky et al. Chem and Biol 2008
  Kd: 1640 nM
Protein PIK3R2-N, ref Jones et al. 2006 / Kaushansky et al. Chem and Biol 2008
  Kd: 1950 nM
Protein PIK3R2-NC, ref Jones et al. 2006 / Kaushansky et al. Chem and Biol 2008
  Kd: 2000 nM
Protein PIK3R3-N, ref Jones et al. 2006 / Kaushansky et al. Chem and Biol 2008
  Kd: 1930 nM
Protein PIK3R3-NC, ref Jones et al. 2006 / Kaushansky et al. Chem and Biol 2008
  Kd: 530 nM
Protein PLCG1-C, ref Jones et al. 2006 / Kaushansky et al. Chem and Biol 2008
  Kd: 1460 nM
Protein PLCG1-NC, ref Jones et al. 2006 / Kaushansky et al. Chem and Biol 2008
  Kd: 2000 nM
Protein PTPN6-C, ref Jones et al. 2006 / Kaushansky et al. Chem and Biol 2008
  Kd: 2000 nM
Protein RASA1-N, ref Jones et al. 2006 / Kaushansky et al. Chem and Biol 2008
  Kd: 2000 nM
Protein RASA1-NC, ref Jones et al. 2006 / Kaushansky et al. Chem and Biol 2008
  Kd: 2000 nM
Protein SH2B2, ref Jones et al. 2006 / Kaushansky et al. Chem and Biol 2008
  Kd: 2000 nM
Protein SH2D3A, ref Jones et al. 2006 / Kaushansky et al. Chem and Biol 2008
  Kd: 2000 nM
Protein SHC1-PTB, ref Jones et al. 2006 / Kaushansky et al. Chem and Biol 2008
  Kd: 2000 nM
Protein SHC2-PTB, ref Jones et al. 2006 / Kaushansky et al. Chem and Biol 2008
  Kd: 2000 nM
Protein SHC3, ref Jones et al. 2006 / Kaushansky et al. Chem and Biol 2008
  Kd: 2000 nM
Protein SLA2, ref Jones et al. 2006 / Kaushansky et al. Chem and Biol 2008
  Kd: 2000 nM
Protein SLA, ref Jones et al. 2006 / Kaushansky et al. Chem and Biol 2008
  Kd: 2000 nM
Protein SOCS1, ref Jones et al. 2006 / Kaushansky et al. Chem and Biol 2008
  Kd: 2000 nM
Protein SOCS2, ref Jones et al. 2006 / Kaushansky et al. Chem and Biol 2008
  Kd: 2000 nM
Protein SRC, ref Jones et al. 2006 / Kaushansky et al. Chem and Biol 2008
  Kd: 760 nM
Protein SUPT6H, ref Jones et al. 2006 / Kaushansky et al. Chem and Biol 2008
  Kd: 910 nM
Protein SYK-NC, ref Jones et al. 2006 / Kaushansky et al. Chem and Biol 2008
  Kd: 370 nM
Protein TEC, ref Jones et al. 2006 / Kaushansky et al. Chem and Biol 2008
  Kd: 2000 nM
Protein TENC1, ref Jones et al. 2006 / Kaushansky et al. Chem and Biol 2008
  Kd: 2000 nM
Protein VAV1, ref Jones et al. 2006 / Kaushansky et al. Chem and Biol 2008
  Kd: 2000 nM
Protein VAV2, ref Jones et al. 2006 / Kaushansky et al. Chem and Biol 2008
  Kd: 2000 nM
Protein VAV3, ref Jones et al. 2006 / Kaushansky et al. Chem and Biol 2008
  Kd: 2000 nM
Protein YES1, ref Jones et al. 2006 / Kaushansky et al. Chem and Biol 2008
  Kd: 1170 nM

## DEKEpYNADGGKMd [ErbB4 pY875, N-terminally rhodamine-labeled 13-mer phosphopeptide]
[1]
  Kd: 1140 nM

## DETEpYHADGGKVd [ErbB2 pY877, N-terminally rhodamine-labeled 13-mer phosphopeptide]
Protein BLK, ref Kaushansky et al. Chem and Biol 2008
  Kd: 720 nM
Protein PLCG2-N, ref Kaushansky et al. Chem and Biol 2008
  Kd: 650 nM
[1]
  Kd: 1100 nM
Protein RASA1-NC, ref Kaushansky et al. Chem and Biol 2008
  Kd: 1400 nM
Protein YES1, ref Kaushansky et al. Chem and Biol 2008
  Kd: 1890 nM
